System: CEM, K562, HL-60, and CRL cell lines
Experiment: Intracellular 3′-dATP quantification, cell lines together
Type: cell-based, human
Experimental: HL-60 (ATCC CCL-240), K562 (ATCC CCL-243), CCRF-CEM (ATCC CRM-CCL-119), and RL (ATCC CRL-2261) leukemia cell lines were obtained from the American Type Culture Collection (ATCC), Middlesex. HL-60 and K562 cell lines are deoxynucleotidyl transferase-negative (TdT^–ve), whereas CCRF-CEM cell line is TdT^+ve. They were cultured in RPMI-1640 medium (Sigma-Aldrich, U.K.), which were supplemented with 10% fetal bovine serum (FBS) (PAA Laboratories), 1% amphotericin B (5.5 mL), and 1% penicillin/streptomycin (5.5 mL) (PAA Laboratories) and grown in flasks at 37 °C in an incubator with 5% CO2. […]
The analytes were resolved using an ultraperformance liquid chromatography system (Accela UPLC, Thermo Scientific, U.K.) equipped with a Biobasic A × 5 μm, 50 × 2.1 mm column (Thermo Electron Corporation, Murrieta, CA) and mobile phase consisting of a mixture of 10 mM NH4Ac in ACN/H2O (30:70 v/v), pH 6.0 (A), and 1 mM NH4Ac in ACN/H2O (30:70 v/v), pH 10.5 (B). […] Eluting compounds of interest were detected using a triple-stage quadrupole Vantage mass spectrometry system (Thermo Scientific, U.K.) equipped with an electrospray ion source. Samples were analyzed in the Multiple Reaction Monitoring, negative-ion modes at a spray voltage of 3000 V. Nitrogen was used as sheath and auxiliary gas at flow rates of 50 and 20 arbitrary units, respectively. […]

Q: `C[C@H](NP(=O)(OC[C@@H]1C[C@@H](O)[C@H](n2cnc3c(N)ncnc32)O1)Oc1ccccc1)C(=O)OCc1ccccc1` (stereo partly drawn) [Compound 7a, (Rp)- and (Sp)-3′-Deoxyadenosine 5′-O-phenyl-(benzoxy-L-alaninyl)-phosphate] was tested. Which “effect of hENT1, AK, and ADA inhibitors on intracellular 3′-dATP levels” value did it give?
A: did not affect
